The text below walks through data of patent US8143394B2, “Pyrido(3,2-d)pyrimidines useful for treating viral infections” (Gilead Sciences, Inc., priority 2006, dated 2012).

One data set concerns HCV replicon. The data set can be described thus: Anti-HCV replicon assay (EC50, luciferase readout). It is filed as cell-based. The settings on record: Hepatitis C virus. The method, then:
(§1) The anti-HCV activity of the pyrido[3,2-d]pyrimidine derivatives of this invention was tested in a human hepatoma Huh-7 cell line harbouring a HCV replicon. The assay comprised the following steps:
(§2) Step 1: Compound Preparation and Serial Dilution
(§3) • 1. for water soluble pyrido[3,2-d]pyrimidine derivatives, a volume of 500 μL of solution in cell media (DMEM, 10% FBS, P/S, L-Glutamine) was prepared with a concentration being twice the concentration of the starting final serial dilution concentration. A volume of 150 μL of the solution was added to the pre-specified wells in column 1 of a 96-well cell culture plate (PerkinElmer, white plate, cat. #6005181, for EC50 assay; black plate, cat. #6005182 for CC50 assay). The rest of the plate, columns 2-12, was filled with 100 μL of cell media. The plate was then placed on a Precision 2000 Workstation to start the serial dilution. Compounds were diluted three times each step from column 1 to column 10. Column 11 was used as a blank control (no compound added). • 2. for pyrido[3,2-d]pyrimidine derivatives requiring DMSO to dissolve, serial dilution is performed in 50% DMSO in a 384-well plate. A solution containing a compound at 100-fold concentration of the starting final serial dilution concentration was prepared in 50% DMSO and added to the pre-specified wells in column 1 of a polypropylene 384-well plate. The plate was then placed on a Precision 2000 Workstation to start the serial dilution. After the serial dilution, a volume of 2 μL of the solution was transferred from the 384-well plate to a 96-well cell culture plate containing 100 μL of cell media on a Biomek FX Workstation. The DMSO concentration in the final assay condition was 0.5% after cells are added to the plate and the total volume in each well is brought to 200 μL. Step 2: to each well of the serial dilution plate prepared above, 100 μL of cell media containing 6000 suspended Huh-7 HCV replicon cells was added with a Multidrop workstation. The plates were incubated for 3 days at 37° C. with 5% CO2. Step 3: Detection: • a) for the EC50 assay, the media in a 96-well cell culture plate was aspirated with a Biotek EL405 plate-washer. A volume of 200 μL of a solution containing a 1:1 mixture of cell-lysis buffer (Promega, Luciferase Cell Culture Lysis 5X Reagent, cat. #E1531) and luciferase substrate solution (Promega, Luciferase Assay, cat. # E4550) was added to each well of the plate with Multidrop. The plate was incubated for 30 minutes at room temperature before the luminescence signal was measured with a TopCount plate-reader. • b) for the CC50 assay, a volume of 100 μL of pre-mixed CellTiter-Glo (Promega, cat. # G7572) solution is added directly to the cell culture in each well of the plate and the luminescence signal is measured with a TopCount plate-reader after 10 minutes of incubation at room temperature.
(§4) Results in table 13 are expressed by the following data: • the 50% effective concentration (EC50), i.e. the concentration that protects 50% of the cell monolayer from virus-induced cythopathic effect, and • the 50% cytostatic concentration (CC50), i.e. the concentration that results in 50% inhibition of cell growth.

Data set [1] is described as follows: CC50 assay (CellTiter-Glo) in Huh-7 HCV replicon cells. In kind it is cell-based, human. The settings on record: human, 50% cytostatic concentration. The method, then: as §1, §2, §3, §4
Setting [2] is: 72 h, human hepatoma Huh-7 cell line harbouring a HCV replicon, 3 days, luciferase, read-out: EC50.

Where two headings read alike, the source gives them in different places.

For the compound `CCOc1nc(N)nc2ccc(-c3cccc(NS(C)(=O)=O)c3)nc12` [Example 45, N-[3-(2-Amino-4-ethoxy-pyrido[3,2-d]pyrimidin-6-yl)-phenyl]-methanesulfonamide], in the data set on HCV replicon (setting [2]), the EC50 was less than 300 nM. In data set [1], the CC50 at 3 days is more than 20000 nM.

For the compound `CS(=O)(=O)CCNc1nc(N)nc2ccc(-c3ccc(C(=O)NC4CC4)cc3)nc12` [Example 7, 4-[2-Amino-4-(2-methanesulfonyl-ethylamino)-pyrido[3,2-d]pyrimidin-6-yl]-N-cyclopropyl-benzamide], the 50% effective concentration (EC50) with HCV replicon (setting [2]) fell in the range of 300 to 1000 nM. The same compound yielded a 50% cytotoxic concentration (CC50) at 3 days in data set [1] of more than 20000 nM.

For the compound `CCOc1nc(N)nc2ccc(-c3cccc(NS(=O)(=O)c4c(C)noc4C)c3)nc12` [Example 50, 3,5-Dimethyl-isoxazole-4-sulfonic acid [3-(2-amino-4-ethoxy-pyrido[3,2-d]pyrimidin-6-yl)-phenyl]-amide], the EC50 with HCV replicon (setting [2]) was 300 to 1000 nM. In data set [1], this compound had a CC50 at 3 days of more than 20000 nM.

As for `CCOc1nc(N)nc2ccc(-c3ccc(NC(=O)[C@@H](N)CO)cc3)nc12` [Example 41, 2-Amino-N-[4-(2-amino-4-ethoxy-pyrido[3,2-d]pyrimidin-6-yl)-phenyl]-3-hydroxy-propionamide], in the data set with HCV replicon (setting [2]), the EC50 was less than 300 nM. Moreover, the CC50 at 3 days in data set [1] was more than 20000 nM.

Consider `COCCNc1nc(N)nc2ccc(-c3ccc(NC(=O)C(C)C)cc3)nc12` [Example 9, N-{4-[2-Amino-4-(2-methoxy-ethylamino)-pyrido[3,2-d]pyrimidin-6-yl]-phenyl}-isobutyramide], for which the concentration for a half-maximal effect (EC50) in the data set on HCV replicon (setting [2]) was less than 300 nM. In data set [1], this compound had a CC50 at 3 days of 10000 to 20000 nM.

On to `CN1CCCC1CCNC(=O)c1ccc(-c2ccc3nc(N)nc(O[C@H]4CCOC4)c3n2)cc1` (some centres unmarked) [Example 78, 4-[2-Amino-4-(tetrahydro-furan-3-yloxy)-pyrido[3,2-d]pyrimidin-6-yl]-N-[2-(1-methyl-pyrrolidin-2-yl)-ethyl]-benzamide], for which the EC50 in the data set on HCV replicon (setting [2]) was more than 1000 nM. The 50% cytotoxic concentration (CC50) at 3 days in data set [1] was more than 20000 nM.

In the case of `CS(=O)(=O)CCNc1nc(N)nc2ccc(-c3cccc(NS(=O)(=O)C4CC4)c3)nc12` [Example 2, Cyclopropanesulfonic acid {3-[2-amino-4-(2-methanesulfonyl-ethylamino)-pyrido[3,2-d]pyrimidin-6-yl]-phenyl}-amide], the concentration for a half-maximal effect (EC50) in the data set with HCV replicon (setting [2]) lay in the range of 300 to 1000 nM. Moreover, in data set [1], the half-maximal cytotoxic concentration (CC50) at 3 days is more than 20000 nM.

In the data set with HCV replicon (Huh-7, 72 h), `CCOc1nc(N)nc2ccc(-c3ccc(NC(=O)OC)cc3)nc12` [Example 44, [4-(2-Amino-4-ethoxy-pyrido[3,2-d]pyrimidin-6-yl)-phenyl]-carbamic acid methyl ester] showed a concentration giving a half-maximal response (EC50) of 300 to 1000 nM. This compound also displayed a CC50 at 3 days in data set [1] of more than 20000 nM.

Regarding `CC(C)(N)C(=O)Nc1ccc(-c2ccc3nc(N)nc(NCCS(C)(=O)=O)c3n2)cc1` [Example 1, 2-Amino-N-{4-[2-amino-4-(2-methanesulfonyl-ethylamino)-pyrido[3,2-d]pyrimidin-6-yl]-phenyl}-2-methyl-propionamide], in the data set with HCV replicon (setting [2]), the EC50 is less than 300 nM. The CC50 at 3 days in data set [1] was less than 10000 nM.

For `CC(C)(N)C(=O)Nc1ccc(-c2ccc3nc(N)nc(O[C@@H]4CCOC4)c3n2)cc1F` [Example 23, 2-Amino-N-{4-[2-amino-4-(tetrahydro-furan-3-yloxy)-pyrido[3,2-d]pyrimidin-6-yl]-2-fluoro-phenyl}-2-methyl-propionamide], the EC50 in the data set with HCV replicon (setting [2]) was less than 300 nM. In data set [1], this compound registered a 50% cytotoxic concentration (CC50) at 3 days of more than 20000 nM.

Turning to `Nc1nc(N2CCS(=O)(=O)CC2)c2nc(-c3ccc(C(=O)NC4CC4)cc3)ccc2n1` [Example 16, 4-[2-Amino-4-(1,1-dioxo-1λ^6-thiomorpholin-4-yl)-pyrido[3,2-d]pyrimidin-6-yl]-N-cyclopropyl-benzamide], the half-maximal effective concentration (EC50) with HCV replicon (setting [2]) was less than 300 nM. The CC50 at 3 days in data set [1] was 10000 to 20000 nM.

For the compound `CCOc1nc(N)nc2ccc(-c3ccc(NC(=O)CC)cc3)nc12` [Example 46, N-[4-(2-Amino-4-ethoxy-pyrido[3,2-d]pyrimidin-6-yl)-phenyl]-propionamide], the EC50 in the data set with HCV replicon (setting [2]) is less than 300 nM. Besides, the CC50 at 3 days in data set [1] is more than 20000 nM.

On to `CC(C)C(=O)Nc1ccc(-c2ccc3nc(N)nc(NCCS(C)(=O)=O)c3n2)cc1` [Example 5, N-{4-[2-Amino-4-(2-methanesulfonyl-ethylamino)-pyrido[3,2-d]pyrimidin-6-yl]-phenyl}-isobutyramide], for which, in the data set on HCV replicon (setting [2]), the 50% effective concentration (EC50) is less than 300 nM. For the same compound, in data set [1], the CC50 at 3 days was more than 20000 nM.

For `CC(C)Oc1nc(N)nc2ccc(-c3ccc(C(=O)NC4CC4)cc3)nc12` [Example 73, 4-(2-Amino-4-isopropoxy-pyrido[3,2-d]pyrimidin-6-yl)-N-cyclopropyl-benzamide], the EC50 in the data set with HCV replicon (setting [2]) was less than 300 nM. For the same compound, the CC50 at 3 days in data set [1] is more than 20000 nM.

With `Nc1nc(O[C@@H]2CCOC2)c2nc(-c3ccc(N4CCCC4=O)cc3)ccc2n1` [Example 28, 1-{4-[2-Amino-4-(tetrahydro-furan-3-yloxy)-pyrido[3,2-d]pyrimidin-6-yl]-phenyl}-pyrrolidin-2-one], in the data set with HCV replicon (setting [2]), the EC50 is less than 300 nM. The CC50 at 3 days in data set [1] is more than 20000 nM.

Consider `CC(C)Oc1nc(N)nc2ccc(-c3ccc(C(=O)NC(C)(C)C)cc3)nc12` [Example 67, 4-(2-Amino-4-isopropoxy-pyrido[3,2-d]pyrimidin-6-yl)-N-tert-butyl-benzamide], for which the concentration giving a half-maximal response (EC50) in the data set on HCV replicon (setting [2]) fell in the range of 300 to 1000 nM. In data set [1], this compound yielded a half-maximal cytotoxic concentration (CC50) at 3 days of more than 20000 nM.

On to `CC(C)(CN1CCOCC1)NC(=O)c1ccc(-c2ccc3nc(N)nc(O[C@H]4CCOC4)c3n2)cc1` [Example 81, 4-[2-Amino-4-(tetrahydro-furan-3-yloxy)-pyrido[3,2-d]pyrimidin-6-yl]-N-(1,1-dimethyl-2-morpholin-4-yl-ethyl)-benzamide], for which the EC50 in the data set on HCV replicon (setting [2]) is less than 300 nM. In addition, in data set [1], the CC50 at 3 days is more than 20000 nM.

For the compound `CC(C)C(=O)Nc1ccc(-c2ccc3nc(N)nc(N4CCS(=O)(=O)CC4)c3n2)cc1` [Example 14, N-{4-[2-Amino-4-(1,1-dioxo-1λ^6-thiomorpholin-4-yl)-pyrido[3,2-d]pyrimidin-6-yl]-phenyl}-isobutyramide], the EC50 with HCV replicon (setting [2]) is less than 300 nM. This compound also showed a CC50 at 3 days in data set [1] of more than 20000 nM.

On to `CCOc1nc(N)nc2ccc(-c3ccc(NC(=O)[C@H](C)N)c(OC)c3)nc12` [Example 38, 2-Amino-N-[4-(2-amino-4-ethoxy-pyrido[3,2-d]pyrimidin-6-yl)-2-methoxy-phenyl]-propionamide], for which the EC50 with HCV replicon (setting [2]) was less than 300 nM. The same compound yielded a CC50 at 3 days in data set [1] of more than 20000 nM.

Consider `CC(C)C(=O)Nc1ccc(-c2ccc3nc(N)nc(OCCF)c3n2)cc1` [Example 21, N-{4-[2-amino-4-(2-fluoro-ethoxy)-pyrido[3,2-d]pyrimidin-6-yl]-phenyl}-isobutyramide], for which the EC50 in the data set on HCV replicon (setting [2]) fell in the range of 300 to 1000 nM. The CC50 at 3 days in data set [1] is more than 20000 nM.

With `COc1nc(N)nc2ccc(-c3ccc(C(=O)NC4CC4)cc3)nc12` [Example 74, 4-(2-Amino-4-methoxy-pyrido[3,2-d]pyrimidin-6-yl)-N-cyclopropyl-benzamide], the EC50 with HCV replicon (setting [2]) was 300 to 1000 nM. The 50% cytotoxic concentration (CC50) at 3 days in data set [1] lay in the range of 10000 to 20000 nM.

`CCOc1nc(N)nc2ccc(-c3ccc(C(=O)NC4CC4)c(Cl)c3)nc12` [Example 62, 4-(2-Amino-4-ethoxy-pyrido[3,2-d]pyrimidin-6-yl)-2-chloro-N-cyclopropyl-benzamide]: the EC50 with HCV replicon (setting [2]) was more than 1000 nM. In data set [1], this compound yielded a CC50 at 3 days of more than 20000 nM.

With `COC(=O)Nc1ccc(-c2ccc3nc(N)nc(N4CCS(=O)(=O)CC4)c3n2)cc1` [Example 13, {4-[2-Amino-4-(1,1-dioxo-1λ^6-thiomorpholin-4-yl)-pyrido[3,2-d]pyrimidin-6-yl]-phenyl}-carbamic acid methyl ester], the half-maximal effective concentration (EC50) in the data set with HCV replicon (setting [2]) was less than 300 nM. In data set [1], this compound yielded a CC50 at 3 days of more than 20000 nM.

Turning to `CCOc1nc(N)nc2ccc(-c3cccc(NS(=O)(=O)c4ccc(C)cc4)c3)nc12` [Example 40], the EC50 in the data set on HCV replicon (setting [2]) was in the range of 300 to 1000 nM. For the same compound, the CC50 at 3 days in data set [1] is more than 20000 nM.

For the compound `CCOc1nc(N)nc2ccc(-c3ccc(C(=O)NC4CCCC4)cc3)nc12` [Example 59, 4-(2-Amino-4-ethoxy-pyrido[3,2-d]pyrimidin-6-yl)-N-cyclopentyl-benzamide], in the data set with HCV replicon (setting [2]), the EC50 fell in the range of 300 to 1000 nM. The cytotoxic concentration (CC50) at 3 days in data set [1] is more than 20000 nM.
